Results from ChEMBL document CHEMBL1156860, “Synthesis and biological activities of novel indole derivatives as potent and selective PPARgamma modulators” (Bioorg Med Chem Lett, 2010).

Experiments:
[1] = target: T1, Peroxisome proliferator-activated receptor gamma (Mus musculus, UniProt P37238); experiment: Agonist activity at mouse PPARgamma expressed in african green monkey CV1 cells by Gal4 transactivation assay; type: functional, cell-based, CV-1
T1 sequence (P37238 whole entry): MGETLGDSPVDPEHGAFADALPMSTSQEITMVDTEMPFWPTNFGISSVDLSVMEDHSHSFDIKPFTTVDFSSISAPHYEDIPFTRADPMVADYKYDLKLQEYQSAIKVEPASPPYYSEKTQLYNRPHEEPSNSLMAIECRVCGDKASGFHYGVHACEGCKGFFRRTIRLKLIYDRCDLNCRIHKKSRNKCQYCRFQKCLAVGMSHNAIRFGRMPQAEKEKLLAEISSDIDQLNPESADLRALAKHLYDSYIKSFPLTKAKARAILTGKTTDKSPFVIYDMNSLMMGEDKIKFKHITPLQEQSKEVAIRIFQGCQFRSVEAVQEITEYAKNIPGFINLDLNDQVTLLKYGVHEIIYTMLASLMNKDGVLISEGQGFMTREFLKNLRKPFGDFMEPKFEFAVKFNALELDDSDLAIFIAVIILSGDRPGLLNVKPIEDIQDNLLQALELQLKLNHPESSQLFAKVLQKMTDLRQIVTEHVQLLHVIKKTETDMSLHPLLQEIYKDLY

[2] = target: T2, Peroxisome proliferator-activated receptor delta (Homo sapiens, UniProt Q03181); experiment: Agonist activity at human PPARdelta expressed in african green monkey CV1 cells by Gal4 transactivation assay; type: functional, cell-based, CV-1
T2 sequence (Q03181 whole entry): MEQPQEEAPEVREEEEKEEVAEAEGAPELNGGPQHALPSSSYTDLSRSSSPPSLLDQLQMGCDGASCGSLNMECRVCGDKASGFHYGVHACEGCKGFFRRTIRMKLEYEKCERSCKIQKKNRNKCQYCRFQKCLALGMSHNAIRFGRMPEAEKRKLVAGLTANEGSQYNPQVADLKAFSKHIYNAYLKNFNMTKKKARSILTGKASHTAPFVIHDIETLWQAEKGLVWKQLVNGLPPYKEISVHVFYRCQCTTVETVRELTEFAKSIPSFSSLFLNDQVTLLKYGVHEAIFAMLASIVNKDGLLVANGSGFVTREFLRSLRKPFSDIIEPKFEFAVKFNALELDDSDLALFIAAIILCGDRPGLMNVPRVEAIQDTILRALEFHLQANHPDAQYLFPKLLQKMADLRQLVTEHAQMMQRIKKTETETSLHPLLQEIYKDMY

[3] = target: T3, Peroxisome proliferator-activated receptor alpha (Homo sapiens, UniProt Q07869); experiment: Agonist activity at human PPARalpha expressed in african green monkey CV1 cells by Gal4 transactivation assay; type: functional, cell-based, CV-1
T3 sequence (Q07869 whole entry): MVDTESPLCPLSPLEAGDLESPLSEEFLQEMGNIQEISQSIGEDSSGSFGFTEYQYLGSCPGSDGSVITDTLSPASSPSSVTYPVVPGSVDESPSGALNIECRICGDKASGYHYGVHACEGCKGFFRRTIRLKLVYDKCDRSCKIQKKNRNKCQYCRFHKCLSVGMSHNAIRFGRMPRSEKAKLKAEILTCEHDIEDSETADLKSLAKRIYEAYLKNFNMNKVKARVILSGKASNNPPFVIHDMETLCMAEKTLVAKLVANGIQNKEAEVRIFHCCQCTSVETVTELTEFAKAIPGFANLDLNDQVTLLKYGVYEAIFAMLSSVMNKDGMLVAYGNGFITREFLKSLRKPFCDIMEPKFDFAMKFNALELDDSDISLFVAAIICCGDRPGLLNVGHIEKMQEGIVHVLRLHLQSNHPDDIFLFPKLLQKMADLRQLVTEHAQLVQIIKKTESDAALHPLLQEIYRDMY

[4] = target: T4, Peroxisome proliferator-activated receptor gamma (Homo sapiens, UniProt P37231)
T4 sequence (P37231 whole entry): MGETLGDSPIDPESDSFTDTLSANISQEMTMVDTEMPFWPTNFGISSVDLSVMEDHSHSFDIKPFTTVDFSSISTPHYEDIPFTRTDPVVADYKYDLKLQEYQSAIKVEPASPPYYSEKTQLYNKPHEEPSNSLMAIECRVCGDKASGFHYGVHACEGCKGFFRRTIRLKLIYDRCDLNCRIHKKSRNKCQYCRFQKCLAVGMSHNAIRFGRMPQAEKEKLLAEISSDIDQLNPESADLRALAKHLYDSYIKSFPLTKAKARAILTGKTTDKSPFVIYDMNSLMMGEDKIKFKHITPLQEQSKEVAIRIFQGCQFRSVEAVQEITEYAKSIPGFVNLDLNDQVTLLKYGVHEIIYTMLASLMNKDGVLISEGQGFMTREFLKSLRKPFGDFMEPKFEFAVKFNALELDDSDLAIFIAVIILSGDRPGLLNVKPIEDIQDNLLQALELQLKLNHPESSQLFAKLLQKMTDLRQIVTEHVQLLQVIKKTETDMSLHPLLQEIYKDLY
Description: Agonist activity at human PPARgamma expressed in african green monkey CV1 cells by Gal4 transactivation assay

[5] = target: T5, Peroxisome proliferator-activated receptor alpha (Mus musculus, UniProt P23204); experiment: Agonist activity at mouse PPARalpha expressed in african green monkey CV1 cells by Gal4 transactivation assay; type: functional, cell-based, CV-1
T5 sequence (P23204 whole entry): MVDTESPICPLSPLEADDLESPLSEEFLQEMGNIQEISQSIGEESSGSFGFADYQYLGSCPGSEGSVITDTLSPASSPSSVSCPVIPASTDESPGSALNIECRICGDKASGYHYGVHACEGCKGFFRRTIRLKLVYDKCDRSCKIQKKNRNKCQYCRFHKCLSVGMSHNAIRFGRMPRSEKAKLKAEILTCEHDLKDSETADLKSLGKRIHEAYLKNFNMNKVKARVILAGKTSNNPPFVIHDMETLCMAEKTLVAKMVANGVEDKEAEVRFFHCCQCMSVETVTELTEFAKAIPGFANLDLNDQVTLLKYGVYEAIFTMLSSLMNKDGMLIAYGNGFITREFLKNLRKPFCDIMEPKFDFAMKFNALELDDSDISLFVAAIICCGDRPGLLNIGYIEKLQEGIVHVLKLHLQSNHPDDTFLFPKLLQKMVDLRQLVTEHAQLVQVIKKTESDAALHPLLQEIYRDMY

[6] = target: T6, Peroxisome proliferator-activated receptor delta (Mus musculus, UniProt P35396); experiment: Agonist activity at mouse PPARdelta expressed in african green monkey CV1 cells by Gal4 transactivation assay; type: functional, cell-based, CV-1
T6 sequence (P35396 whole entry): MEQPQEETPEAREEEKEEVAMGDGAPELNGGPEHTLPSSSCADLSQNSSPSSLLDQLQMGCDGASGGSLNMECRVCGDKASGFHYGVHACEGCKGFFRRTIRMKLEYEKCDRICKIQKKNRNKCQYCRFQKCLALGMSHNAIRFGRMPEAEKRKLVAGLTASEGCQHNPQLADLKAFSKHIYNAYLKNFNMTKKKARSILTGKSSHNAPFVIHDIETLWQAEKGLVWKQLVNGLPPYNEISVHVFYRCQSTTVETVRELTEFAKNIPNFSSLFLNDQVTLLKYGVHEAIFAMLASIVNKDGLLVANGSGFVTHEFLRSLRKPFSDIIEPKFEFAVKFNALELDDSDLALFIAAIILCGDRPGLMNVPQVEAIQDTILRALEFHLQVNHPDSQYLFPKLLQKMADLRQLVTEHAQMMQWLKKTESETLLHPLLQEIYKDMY

[7] = target: T3, Peroxisome proliferator-activated receptor alpha; experiment: Displacement of radiolabeled GW-2433 from human PPARalpha ligand binding domain expressed in Escherichia coli
[8] = target: T4, Peroxisome proliferator-activated receptor gamma; remark: listed apart in the source
Description: Displacement of radiolabeled ((5-{4-[Methyl-pyridin-2yl-amino)-ethoxy]-benzyl}-thiazolidine-2,4-dione) from human PPARgamma ligand binding domain expressed in Escherichia coli

[9] = target: T2, Peroxisome proliferator-activated receptor delta; experiment: Displacement of radiolabeled GW-2433 from human PPARdelta ligand binding domain expressed in Escherichia coli
[10] = target: T7, Peroxisome proliferator-activated receptor alpha (Homo sapiens) (UniProt Q07869); experiment: Agonist activity at human PPARalpha expressed in african green monkey CV1 cells by Gal4 transactivation assay relative to SW516; type: functional, cell-based; settings: CV-1
T7 sequence (whole entry): T3 sequence (Q07869 whole entry)

[11] = Clearance in CD rat at 1 mg/kg, iv and 5 mg/kg, po; type: ADME, organism-based; settings: in vivo
[12] = AUC in Zucker fa/fa rat at 5 mg/kg, po; type: ADME, organism-based; design: dose 5 mg/kg, route oral; settings: plasma
[13] = target: T8, Peroxisome proliferator-activated receptor alpha (Mus musculus) (UniProt P23204); experiment: Agonist activity at mouse PPARalpha expressed in african green monkey CV1 cells by Gal4 transactivation assay relative to SW516; type: functional, cell-based; settings: CV-1
T8 sequence (whole entry): T5 sequence (P23204 whole entry)

Rattus norvegicus [14] = experiment: Antidiabetic activity in Zucker fa/fa rat assessed as reduction in hematocrit level in at 40 mg/kg, po twice a day for 5 days; type: functional; design: scale not given: the % may be the effect or the level left
[15] = Cmax in CD rat at 1 mg/kg, iv and 5 mg/kg, po; type: ADME, organism-based; settings: in vivo
[16] = Half life in CD rat at 1 mg/kg, iv and 5 mg/kg, po; type: ADME, organism-based; settings: in vivo
[17] = Volume of distribution at steady state in CD rat at 1 mg/kg, iv and 5 mg/kg, po; type: ADME, organism-based; settings: in vivo, read-out: Vdss
[18] = Oral bioavailability in CD rat at 1 mg/kg, iv; type: ADME, organism-based; settings: in vivo
Rattus norvegicus [19] = experiment: Antidiabetic activity in Zucker fa/fa rat assessed as reduction in plasma glucose level in at 40 mg/kg, po twice a day for 5 days; type: functional; design: scale not given: the % may be the effect or the level left
[20] = AUC in CD rat at 5 mg/kg, po; type: ADME, organism-based; design: dose 5 mg/kg, route oral; settings: plasma
Rattus norvegicus [21] = experiment: Antidiabetic activity in Zucker fa/fa rat assessed as reduction in triglyceride level in at 40 mg/kg, po twice a day for 5 days; type: functional; design: scale not given: the % may be the effect or the level left
Rattus norvegicus [22] = experiment: Antidiabetic activity in Zucker fa/fa rat assessed as reduction in hematocrit level in at 10 mg/kg, po twice a day for 5 days; type: functional; design: scale not given: the % may be the effect or the level left
Rattus norvegicus [23] = experiment: Antidiabetic activity in Zucker fa/fa rat assessed as reduction in triglyceride level in at 10 mg/kg, po twice a day for 5 days; type: functional; design: scale not given: the % may be the effect or the level left
Rattus norvegicus [24] = experiment: Antidiabetic activity in Zucker fa/fa rat assessed as reduction in plasma glucose level in at 10 mg/kg, po twice a day for 5 days; type: functional; design: scale not given: the % may be the effect or the level left

EC50 [2]	IC50 [7]	IC50 [8]	IC50 [9]	Compound	EC50 [3]	EC50 [4]	further results
> 10 µM	> 10 µM	0.012 µM	> 10 µM	CCC(NC(=O)c1ccc2c(c1)c(SC)c(C)n2Cc1ccc(-c2ccccc2C(=O)O)cc1)c1ccccc1 (stereo not drawn)	> 10 µM	0.001 µM	–
> 10 µM	> 10 µM	12.2 µM	> 10 µM	CCCc1nc2c(C)cc(-c3nc4ccccc4n3C)cc2n1Cc1ccc(-c2ccccc2C(=O)O)cc1	> 10 µM	2.02 µM	EC50 [1]: 4.06 µM; EC50 [5]: > 10 µM; EC50 [6]: > 10 µM
> 10 µM	7.04 µM	0.018 µM	> 10 µM	CCC(NC(=O)c1ccc2c(c1)cc(C)n2Cc1ccc(-c2ccccc2C(=O)O)cc1)c1ccccc1 (stereo not drawn)	4.96 µM	0.017 µM	Activity [10]: 114%
> 10 µM	> 10 µM	–	> 10 µM	Cc1c(C)n(Cc2ccc(-c3ccccc3C(=O)O)cc2)c2ccc(C(=O)NCc3ccccc3)cc12	> 10 µM	–	–
–	> 10 µM	0.574 µM	> 10 µM	CCC(C(=O)Nc1ccc2c(c1)c(C)c(C)n2Cc1ccc(-c2ccccc2C(=O)O)cc1)c1ccccc1 (stereo not drawn)	6.14 µM	0.338 µM	Activity [10]: 45%
–	–	–	–	CN(CCOc1ccc(C[C@H](Nc2ccccc2C(=O)c2ccccc2)C(=O)O)cc1)c1ccccn1	–	–	Activity (Rattus norvegicus [22]): 15%; AUC [12]: 16500 ng·h/mL; Activity (Rattus norvegicus [23]): 54%; Activity (Rattus norvegicus [24]): 21%
> 10 µM	> 10 µM	0.036 µM	> 10 µM	CCCc1c(SC)c2cc(NC(=O)C(CC)c3ccccc3)ccc2n1Cc1ccc(-c2ccccc2C(=O)O)cc1 (stereo not drawn)	> 10 µM	0.003 µM	–

Compound	EC50 [2]	IC50 [7]	IC50 [8]	IC50 [9]	EC50 [3]	EC50 [4]	further results
CCCc1nc2ccc(C(=O)NC(CC)c3ccccc3)cc2n1Cc1ccc(-c2ccccc2C(=O)O)cc1 (stereo not drawn)	> 10 µM	–	–	–	> 10 µM	0.9 µM	EC50 [1]: 1.69 µM; EC50 [5]: > 10 µM; EC50 [6]: > 10 µM
CCCc1cc2cc(NC(=O)C(CC)c3ccccc3)ccc2n1Cc1ccc(-c2ccccc2C(=O)O)cc1 (stereo not drawn)	–	> 10 µM	0.26 µM	> 10 µM	> 10 µM	0.002 µM	–
CCC(NC(=O)c1ccc2c(c1)c(C)c(C)n2Cc1ccc(-c2ccccc2C(=O)O)cc1)c1ccccc1 (stereo not drawn)	> 10 µM	> 10 µM	–	> 10 µM	> 10 µM	–	EC50 [1]: 0.002 µM; clearance [11]: 40 mL/min/kg; AUC [12]: 1330 ng·h/mL; Activity [13]: 79%; Activity (Rattus norvegicus [14]): >10%; Cmax [15]: 319 ng/mL; half-life [16]: 4.58 h; Vd [17]: 17 L/kg; bioavailability [18]: 52%; Activity (Rattus norvegicus [19]): 25%; EC50 [5]: 5.51 µM; AUC [20]: 1150 ng·h/mL; Activity (Rattus norvegicus [21]): 49%; EC50 [6]: > 10 µM
CCC(NC(=O)c1ccc2cc(C)n(Cc3ccc(-c4ccccc4C(=O)O)cc3)c2c1)c1ccccc1 (stereo not drawn)	> 10 µM	> 10 µM	0.321 µM	> 10 µM	> 10 µM	0.163 µM	–
Cc1c(C)n(Cc2ccc(-c3ccccc3C(=O)O)cc2)c2ccc(C(=O)NCCCc3ccccc3)cc12	> 10 µM	> 10 µM	0.018 µM	> 10 µM	> 10 µM	0.022 µM	–
CCCc1c(SC)c2ccc(NC(=O)C(CC)c3ccccc3)cc2n1Cc1ccc(-c2ccccc2C(=O)O)cc1 (stereo not drawn)	–	> 10 µM	0.49 µM	6.95 µM	> 10 µM	0.201 µM	–
